We go through 1 compound from BindingDB's records for PubMed 36262403 (Abbvie, 2022).

This assay addresses T1, P2X purinoceptor 7 (Rattus norvegicus, UniProt Q64663).
T1 sequence (Q64663 whole entry): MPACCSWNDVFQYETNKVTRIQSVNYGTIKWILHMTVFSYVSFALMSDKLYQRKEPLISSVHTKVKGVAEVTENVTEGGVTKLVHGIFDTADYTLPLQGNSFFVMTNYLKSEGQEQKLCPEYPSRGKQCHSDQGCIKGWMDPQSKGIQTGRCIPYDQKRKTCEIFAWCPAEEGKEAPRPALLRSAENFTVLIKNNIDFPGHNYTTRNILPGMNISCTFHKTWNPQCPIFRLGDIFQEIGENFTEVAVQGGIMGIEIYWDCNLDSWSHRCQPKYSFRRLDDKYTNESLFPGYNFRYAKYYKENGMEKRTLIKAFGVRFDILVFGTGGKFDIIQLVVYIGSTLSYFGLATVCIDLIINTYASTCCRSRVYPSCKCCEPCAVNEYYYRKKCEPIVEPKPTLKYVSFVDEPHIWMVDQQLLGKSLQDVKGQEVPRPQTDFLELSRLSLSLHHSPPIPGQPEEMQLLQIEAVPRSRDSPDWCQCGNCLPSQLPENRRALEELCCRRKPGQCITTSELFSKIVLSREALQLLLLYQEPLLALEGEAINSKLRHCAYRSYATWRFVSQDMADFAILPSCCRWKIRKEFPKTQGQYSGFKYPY
The assay can be described thus: Antagonist activity against rat P2X7R expressed in human 1321N1 cell membrane incubated for 1 hrs by radioligand binding assay.

As for `C[C@H](NC(=Nc1cccc2ncccc12)NC#N)c1ccccc1` [[3H]A-804598], the IC50 (in general, the concentration at which inhibition is half-maximal) turned out to be 0.01 µM.
